One data set concerns Saos-2. The data set can be described thus: Inhibitory activity for other high metastasis type cancer cell line (MTT or CCK-8). Conditions: Homo sapiens, SAOS-2, 72 h. Format: cell-based.
The subject of a further data set is A2780. The data set can be described thus: Inhibitory activity for high metastasis type ovarian cancer cell line (MTT or CCK-8). It is filed as cell-based. The settings on record: Homo sapiens, A2780, 72 h. The procedure: (§1) The two cell lines were inoculated on 96-well cell culture plate in an amount of 6000 cells per well and cultured at 37° C. for 24 hours, and then treated solely with the representative compound added therein and cultured. Seventy-two hours later, MTT or CCK-8 method was used to detect the inhibitory activity of the representative compound for the high metastasis type ovarian cancer cell lines.

A further data set has as its system HO-8910. The data set is described as above. The settings on record: HO-8910, 72 h. It is filed as cell-based. The procedure: as §1
A further data set concerns TNF-α. Briefly: Serum TNF-α level of IBD animal model (ELISA). It is filed as in vivo, SD rats. The settings on record: 80 mg/kg, three days after making the TNBS model. From the text:
(§2) Inflammatory bowel disease is an autoimmune disease. […] The therapeutic effect of the representative compound for the immune system disease or inflammation can be assessed by detecting change in levels of some important cytokines such as TNF-α and IL-6 at downstream of the signal path.

A further data set concerns HMLE-Snail cell line. Briefly: Formation of HMLE-Snail cell line spheroids. It is filed as cell-based. Conditions: read-out: Colony (%): cell colony number of drug-treated group/cell colony number of control group × 100%.
The subject of a further data set is IL-6. The data set can be described thus: Serum IL-6 level of IBD animal model (ELISA). Format: in vivo, SD rats. The settings on record: 80 mg/kg, three days after making the TNBS model.
Source text: as §2

The next data set deals with 786-O. The data set can be described thus: Inhibitory activity for other high metastasis type cancer cell line (MTT or CCK-8). The settings on record: Homo sapiens, 786-0, 72 h. Format: cell-based.
For the next data set, the system named is Panc-1. The data set is described as above. The settings on record: Homo sapiens, PANC-1, 72 h. It is filed as cell-based.
A further data set deals with CaSki. The data set is described as above. It is filed as cell-based. The settings on record: Homo sapiens, Ca-Ski, 72 h.
Another data set relates to NCI-H1975. The data set can be described thus: cells. Format: cell-based. The settings on record: Homo sapiens, NCI-H1975, 72 h. Here is the method: (§3) NCI-H1975 and NCI-H1650 are two typical high metastasis type lung cancer cell lines. The therapeutic effect of the representative compound for the metastasis type lung cancers can be preliminarily assessed by detecting the inhibitory activity of the representative compound for the two cell lines. The lung cancer cell line was inoculated on 96-well cell culture plate in an amount of 6000 cells per well and cultured at 37° C. for 24 hours, and then treated solely with the compound added therein and cultured. Seventy-two hours later, MTT or CCK-8 method was used to detect the inhibitory activity of the compound for the two lung cancer cell lines.

The subject of another data set is NCI-H1650. Briefly: cells. Conditions: Homo sapiens, NCI-H1650, 72 h. Format: cell-based. The procedure: as §3
A further data set addresses T1, XPO1 protein (Homo sapiens, UniProt O14980).
T1 construct: Sixteen hours later, NES-GFP plasmid was transfected with liposome; endogenous in cells
The data set can be described thus: Inhibitory activity for XPO1 protein (NES-GFP nuclear export, laser confocal microscope). The settings on record: for Activity (μM): inhibitory activity for XPO1 protein (full inhibitory concentration): NES-GFP nuclear export, cells treated for 2 hours. It is filed as cell-based.

In another data set the test system is IBD animal model. Briefly: Macroscopic pathological changes of IBD animal model (enteroclysis with TNBS). Format: in vivo, SD rats. Conditions: 80 mg/kg intragastrically daily, TNBS rats, score 0-5, 10 animals. The gist of the method:
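Male SD rats, eight weeks old (10 per group), given rectal TNBS in 50% ethanol at 100 mg/kg 5 cm from anus; controls received saline. Drug treatment for two weeks, then rectum photographed, weighed and scored macroscopically for ulceration and bleeding.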

The test system of the next data set is KYSE-70. Briefly: Inhibitory activity for other high metastasis type cancer cell line (MTT or CCK-8). Conditions: Homo sapiens, KYSE-70, 72 h. Format: cell-based.
Data set [1] is described as follows: Safety testing via oral administration, 6 weeks. It is filed as in vivo. Conditions: intragastric, 6 weeks continuously, male and female SD rats. The procedure:
The compound solution was intragastrically administrated to 6-week-old male and female SD rats (I-01: 500 mg/kg/day; I-03: 500 mg/kg/day; I-04: 500 mg/kg/day, I-06: 500 mg/kg/day, I-11: 300 mg/kg/day) for 6 weeks continuously (n=10 per group).

Where two headings read alike, the source gives them in different places.

T1 sequence (O14980 whole entry, species assumed): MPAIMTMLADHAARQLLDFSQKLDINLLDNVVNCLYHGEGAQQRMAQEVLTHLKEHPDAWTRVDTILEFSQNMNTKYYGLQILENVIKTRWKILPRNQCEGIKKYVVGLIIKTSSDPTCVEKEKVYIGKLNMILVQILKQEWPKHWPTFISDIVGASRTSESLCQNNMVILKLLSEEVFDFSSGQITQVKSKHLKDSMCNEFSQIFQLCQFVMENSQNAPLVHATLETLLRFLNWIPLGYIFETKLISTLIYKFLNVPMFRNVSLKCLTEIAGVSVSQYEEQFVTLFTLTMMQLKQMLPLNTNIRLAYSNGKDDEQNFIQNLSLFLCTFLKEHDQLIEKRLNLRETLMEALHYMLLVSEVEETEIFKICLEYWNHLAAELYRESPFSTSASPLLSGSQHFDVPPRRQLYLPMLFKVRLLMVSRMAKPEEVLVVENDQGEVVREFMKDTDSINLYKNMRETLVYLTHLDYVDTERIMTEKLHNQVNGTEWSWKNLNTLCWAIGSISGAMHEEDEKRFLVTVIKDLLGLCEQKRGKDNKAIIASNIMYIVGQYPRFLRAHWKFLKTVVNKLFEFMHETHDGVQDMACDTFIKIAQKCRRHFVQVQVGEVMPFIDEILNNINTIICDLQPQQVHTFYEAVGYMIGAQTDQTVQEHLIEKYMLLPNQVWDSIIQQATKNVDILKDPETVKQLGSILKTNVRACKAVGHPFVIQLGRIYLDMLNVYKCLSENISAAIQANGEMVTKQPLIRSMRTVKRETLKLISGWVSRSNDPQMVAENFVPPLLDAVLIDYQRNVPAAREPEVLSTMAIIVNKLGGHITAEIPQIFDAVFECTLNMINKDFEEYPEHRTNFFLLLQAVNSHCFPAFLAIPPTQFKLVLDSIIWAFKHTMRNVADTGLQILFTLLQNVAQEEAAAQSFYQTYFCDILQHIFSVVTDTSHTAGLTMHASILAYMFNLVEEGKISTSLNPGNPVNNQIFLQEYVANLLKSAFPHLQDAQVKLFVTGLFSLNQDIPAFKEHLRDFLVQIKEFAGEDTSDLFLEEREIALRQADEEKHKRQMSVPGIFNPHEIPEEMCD

For the compound `[O-][S+](/C=C/CCN=C=S)c1ccccc1` (stereo not shown) [Compound I-01], the IC50 in the data set on Saos-2 came to 3200 nM; in the data set with A2780, 2500 nM; in the data set with HO-8910 it was 1900 nM; in the data set on 786-O, 1000 nM; in the data set with Panc-1 it was 3300 nM; with CaSki, 2100 nM. Also, the IC50 with NCI-H1975 amounted to 3100 nM; with NCI-H1650, 2700 nM; with KYSE-70 it was 2700 nM. The “Serum TNF-α level, Animal-1” value in the data set on TNF-α (Animal-1) came out at 1.5 ng/mL. In addition, in the data set with TNF-α (Animal-2), the “Serum TNF-α level, Animal-2” value came out at 1.2 ng/mL. Also, in the data set on TNF-α (Animal-3), the “Serum TNF-α level, Animal-3” value is 1.2 ng/mL. Besides, the activity at 10 µg/mL with HMLE-Snail cell line (24 h) lay within 35 to 40%. In the data set with IL-6 (Animal-1), the “Serum IL-6 level, Animal-1” value was 1.5 ng/mL. For the same compound, the “Serum IL-6 level, Animal-2” value in the data set on IL-6 (Animal-2) came to 1.3 ng/mL. Also, the “Serum IL-6 level, Animal-3” value in the data set on IL-6 (Animal-3) came to 1.2 ng/mL. The “Activity (μM): inhibitory activity for XPO1 protein (full inhibitory concentration)” value at XPO1 protein lay in the range of 1 to 5 µM. Also, the “NES-GFP cell localization (FIG. 1)” value at XPO1 protein (laser confocal micrograph) was “most of NES-GFP protein emitting green fluorescence is congregated in nucleus”. Further, in the data set with IBD animal model, the Macroscopic pathological score is reported as 2.5 ± 0.1.
Regarding `[O-][S+](/C=C/CCN=C=S)c1ccc2ccccc2c1` (stereo not shown) [Compound I-11], the nontoxic dose result in [1] is on record as “at least 300 mg/kg/day”. The activity at 10 µg/mL in the data set on HMLE-Snail cell line (10 μg/ml, treated for 24 hours, control = 100) fell in the range of 30 to 35%. For the same compound, the “Activity (μM): inhibitory activity for XPO1 protein (full inhibitory concentration)” value at XPO1 protein lay within 1 to 5 µM.
